{"source": "patent US9289412B2", "about": "“Role of limonoid compounds as neuroprotective agents” (The Johns Hopkins University, priority 2006, dated 2016)", "key": {"[1]": {"test_system": "hippocampal cultures (HIV-1 Tat toxicity)", "assay": "HIV-1 Tat toxicity assay, MTT viability, mixed hippocampal cultures", "type": "cell-based, rat", "conditions": "Tat 500 nM; range of concentrations up to 10 μM", "description": "We sought to evaluate the protective efficacy of a number of modified terpenoid compounds against the against many different neurotoxins, ranging from the chemotoxic 6-OHDA, NMDA, 3-nitropropionic acid (3-NP), and viral proteins such as Tat and gp120. Thus, we established an in vitro neuroprotection assay using rat mixed hippocampal cultures, in which we evaluated the protective efficacy of neuroprotective compounds disclosed herein. The oxidative stressor 3-NP was used to elicit toxicity in the rat hippocampal cultures to mimic the oxidative damage, reactive oxygen species production and ensuing neurodegeneration resulting from HIV infection. Another measure of neurotoxicity which results from HIV infection was evaluated by exposure of the hippocampal cultures to HIV-1 Tat (Li et al (2005), Neurotox Res, 8(1-2): 119-134).\nRat mixed hippocamal neuronal cultures were generated from freshly dissected rat hippocampi (embryonic day 18) in neurobasal media containing 5% fetal bovine serum and 2% B27 supplement. The cells were plated into 96 well plates at a density of 4×10^5 cells/mL and routinely used on days 11-14 following culturing. Cell viability was assessed with MTT [3-(4,5-dimethylthiazol-2-yl)-2,5-diphenyltetrazolium bromide] assay. The MTT assay is based on the ability of a mitochondrial dehydrogenase enzyme from viable cells to cleave the tetrazolium rings of the pale yellow MTT and form dark blue formazan crystals. See Mosmann (1983), J Immunol Methods, 65(1-2):55-63. These crystals are largely impermeable to cell membranes, and thus accumulate within healthy cells. The resultant formazan precipitates are solubilized with DMSO and read on a multiwell scanning spectrophotometer (ELISA reader). The number of surviving cells is directly proportional to the level of the formazan product created.\nCultures were preincubated with GPI 1046 or Resveratrol for one hour prior to an 18 hour exposure to 3 mM 3-NP. […] The same neuroprotective compounds were evaluated for efficacy against HIV-1 Tat protein toxicity using the same 1 hour preincubation protocol."}, "[2]": {"test_system": "mixed hippocampal cell cultures (NMDA excitotoxicity)", "assay": "NMDA excitotoxicity, MTT viability, mixed hippocampal cultures", "type": "cell-based, rat", "conditions": "NMDA 100 μM", "protocol": "(§1) FIG. 8 is a set of bar graphs showing the results of an MTT viability assay of mixed hippocampal cell cultures in which the effect of (A) NMDA (100 μM) or (B) 6-OHDA (100 μM) is tested alone or in the presence of a range of concentrations of Limonin (0.1-10 μM).\n(§2) We also tested the ability of Limonin to protect against N-methyl-D-Aspartic Acid (NMDA) excitotoxicity, and 6-Hydroxydopamine (6-0HDA), a dopaminergic neurotoxin."}, "[3]": {"test_system": "mixed hippocampal cell cultures (6-OHDA neurotoxicity)", "assay": "6-OHDA neurotoxicity, MTT viability, mixed hippocampal cultures", "type": "cell-based, rat", "conditions": "6-OHDA 100 μM", "protocol": "as §1, §2"}, "[4]": {"test_system": "human fetal neuronal cultures", "assay": "3-NP toxicity, MTT viability, human fetal neuron cultures", "type": "cell-based", "conditions": "3-NP 3 mM; Limonin 0.1-10 μM", "protocol": "(§3) FIG. 9 is a set of bar graphs showing the results of an MTT viability assay of human fetal neuron cultures in which the effect of (A) 3-NP (3 mM) or (B) 6-OHDA (100 μM) is tested alone or in the presence of a range of concentrations of Limonin (0.1-10 μM).\n(§4) Finally, we sought to determine if the compounds tested in rat neuronal cultures would also be effective on cultured human fetal neurons."}, "[5]": {"test_system": "human fetal neuronal cultures", "assay": "6-OHDA toxicity, MTT viability, human fetal neuron cultures", "type": "cell-based", "conditions": "6-OHDA 100 μM; Limonin 0.1-10 μM", "protocol": "as §3, §4"}}, "data": [{"smiles": "CC1(C)O[C@H]2CC(=O)OC[C@]23[C@H]2CC[C@@]4(C)[C@H](c5ccoc5)OC(=O)[C@H]5O[C@]54[C@]2(C)C(=O)C[C@@H]13", "note": "[Limonin]", "values": [{"measurement": "dose dependence of protection from HIV-1 Tat toxicity (FIG. 7)", "setting": "[1]", "value": "dose dependently protected"}, {"measurement": "protection against NMDA at highest dose", "setting": "[2]; Limonin 10 μM", "value": "complete protection"}, {"measurement": "dose dependence of block of NMDA neurotoxicity (FIG. 8A)", "setting": "[2]; Limonin 0.1-10 μM", "value": "dose-dependently blocked the neurotoxicity"}, {"measurement": "protection against 6-OHDA at highest dose", "setting": "[3]; Limonin 10 μM", "value": "complete protection"}, {"measurement": "dose dependence of block of 6-OHDA neurotoxicity (FIG. 8B)", "setting": "[3]; Limonin 0.1-10 μM", "value": "dose-dependently blocked the neurotoxicity"}, {"measurement": "protection of human fetal neuronal cultures against 3-NP (FIG. 9A)", "setting": "[4]", "value": "dose-dependently protected"}, {"measurement": "protection of human fetal neuronal cultures against 6-OHDA (FIG. 9B)", "setting": "[5]", "value": "dose-dependently protected"}]}]}
